According to US20140034581A1, “LIQUID PRODUCTS AND METHOD FOR EMULSIFYING OIL, AND USE THEREOF IN THE TREATMENT OF OIL CONTAMINATIONS” (MAN OIL GROUP AG, priority 2011, published 2014):

Assay: flash point
Assay type: physicochemical
Details: pure glycol component

CC(O)CO (stereo not shown) [1,2-Propandiol]
flash point: > 102 °C
